Measurements published in patent US20030187017A1, “Method for treating functional dyspepsia” (priority 2002, published 2003).

Legend:
[1] = system: FD patients and healthy controls; conditions: cited from earlier work
healthy subjects = conditions: isobarometric and isovolumetric gastric distensions; cited from earlier work
FD patients [2] = test: 12-week double-blind placebo-matched clinical study in FD patients: adequate relief of upper abdominal pain or discomfort and FD symptoms; assay type: in vivo, human; conditions: for Average Weekly Adequate Relief of Pain and Discomfort, Adequate Relief Rates: 12 weeks
Protocol: Three hundred and twenty (320) ambulatory outpatient male and female FD patients at least 18 years of age who have chronic or recurrent abdominal pain or discomfort centered in the upper abdomen were randomised for study comprising twelve (12) weeks of treatment: eighty one (81) were randomised to treatment with placebo BID, seventy seven (77) to 0.5 mg BID alosetron, seventy nine (79) to 1 mg BID alosetron, and eighty three (83) to 2 mg BID alosetron. Study participants included patients who have been diagnosed with FD and patients with symptoms that fulfilled the modified Rome criteria for FD for at least 6 months. Study participants were screened for two weeks prior to the testing phase, to confirm symptoms of sufficient severity for participation in the study. During the two-week screening period, those patients enrolled from the U.S. underwent a 90-minute gastric emptying test to characterize their gastric motility. At the end of the two-week period, all study participants underwent an esophagogastroduodenoseope (EGD) to rule out organic disease and obtain a biopsy for H. pylori within one month of screening. The study was double-blinded and placebo-matched. Eligible subjects were randomized (1:1:1:1 ratio) to either alosetron 0.5 mg, 1 mg, 2 mg, or matched placebo twice daily for a 12-week treatment phase followed by a one-week follow-up period. Laboratory evaluations and adverse events were recorded at the 4, 8 and 12-week (or final) treatment visits. The study was designed to elicit measurements relating to efficacy and safety. The primary endpoint was adequate relief of FD (upper abdominal) pain or discomfort. Secondary endpoints included 1) changes in daily upper abdominal pain severity ratings, 2) proportion of pain free days, 3) changes in self-ratings of nausea, early satiety, bloating or distension, post-prandial fullness and burping or belching, 4) changes in quality of life (QOL) SF-36 scores, 5) changes in SCL-90R® scores, and 6) safety and tolerability with respect to the incidence of adverse events and changes in laboratory values. Daily and weekly symptom data were collected using an electronic touch-tone telephone based system described in J. Harding, et al., Gastroenterology 112:[…] (1997); and J. Harding, et al., Aliment Pharm. Ther. 11:1073-761997. Severity of abdominal pain, nausea and bloating were assessed on a daily basis using a five point scale (0=none; 1=very mild; 2=mild; 3=moderate; 4=severe). During screening, the pain severity score was required to average ≧1.5 for entry into the study. During the treatment and follow-up phases, subjects were asked weekly if they had obtained adequate relief of their upper abdominal pain or discomfort during the previous 7 days. Subjects also responded daily to yes/no questions assessing whether early satiety, post-prandial fullness and burping or belching were present. Analyses were by Intent-to-Treat (ITT) using the last observation carried forward (LOCF) method for handling missing data. The ITT population included all subjects randomized to study treatment. The primary efficacy endpoint was the adequate relief of upper abdominal pain or discomfort. The 12-week average rate of adequate relief was calculated as the sum of the number of responses of “yes” over the 12 weeks of the treatment phase divided by 12 and multiplied by 100 using the LOCF approach. The proportion of patients with weekly adequate relief of upper abdominal pain or discomfort was compared between treatment groups using the Mantel-Haenszel test stratified by geographical clusters of treatment centers. Secondary efficacy measures included subject self-rating of pain severity, frequency and the FD symptoms of nausea, bloating/distension, burping/belching, early satiety and post-prandial fullness. […]

FD patients [3] = test: Adverse events in the 12-week clinical study in FD patients; assay type: in vivo, human
Protocol: The study was double-blinded and placebo-matched. Eligible subjects were randomized (1:1:1:1 ratio) to either alosetron 0.5 mg, 1 mg, 2 mg, or matched placebo twice daily for a 12-week treatment phase followed by a one-week follow-up period. Laboratory evaluations and adverse events were recorded at the 4, 8 and 12-week (or final) treatment visits.
Adverse events were coded and group by body system. Adverse events occurring after randomization were summarized separately from adverse events occurring during the screening phase. For each body system and over all body systems, the frequency of subjects reporting at least one adverse event was calculated by treatment group. In addition, the number of subjects reporting at least one drug-related adverse event and the number of subjects reporting serious adverse events were summarized by treatment group. The four treatment groups were compared using a correlation chi-square test; pairwise comparisons were made with Fisher's exact test.

CN1[C@@H]2CC[C@H]1C[C@@H](OC(=O)c1c[nH]c3ccccc13)C2 [tropisetron]
Gastric accommodation, reflex relaxation or gastric sensitivity [1]: did not influence

Cc1[nH]cnc1CN1CCc2c(c3ccccc3n2C)C1=O [Alosetron, 2,3,4,5-tetrahydro-5-methyl-2-[(5-methyl-1H-imidazol-4-yl)methyl]-1H-pyrido[4,3-b]indol-1-one]
Visceral perception scores (healthy subjects): effect similar to placebo
Average Weekly Adequate Relief, % with Adequate Relief (FD patients [2]; Abnormal gastric emptying (n = 14-16), 0.5 mg BID): 51%
Average Weekly Adequate Relief, % with Adequate Relief (FD patients [2]; Abnormal gastric emptying (n = 14-16), 1 mg BID): 59%
Average Weekly Adequate Relief, % with Adequate Relief (FD patients [2]; Abnormal gastric emptying (n = 14-16), 2 mg BID): 45%
Abdominal pain and discomfort (FD patients [2]; FD patients, particularly female FD patients): substantially improved
Average Weekly Adequate Relief of Pain and Discomfort, Adequate Relief Rates (FD patients [2]; Females (n = 50-60), 0.5 mg BID): 49
Average Weekly Adequate Relief of Pain and Discomfort, Adequate Relief Rates (FD patients [2]; Females (n = 50-60), 1 mg BID): 54
Average Weekly Adequate Relief of Pain and Discomfort, Adequate Relief Rates (FD patients [2]; Females (n = 50-60), 2 mg BID): 43
Average Weekly Adequate Relief of Pain and Discomfort, Adequate Relief Rates (FD patients [2]; Males (n = 20-33), 0.5 mg BID): 39
Average Weekly Adequate Relief of Pain and Discomfort, Adequate Relief Rates (FD patients [2]; Males (n = 20-33), 1 mg BID): 43
Average Weekly Adequate Relief of Pain and Discomfort, Adequate Relief Rates (FD patients [2]; Males (n = 20-33), 2 mg BID): 40
Average Weekly Adequate Relief, % with Adequate Relief (FD patients [2]; Normal gastric emptying (n = 32-34), 0.5 mg BID): 60%
Average Weekly Adequate Relief, % with Adequate Relief (FD patients [2]; Normal gastric emptying (n = 32-34), 1 mg BID): 56%
Average Weekly Adequate Relief, % with Adequate Relief (FD patients [2]; Normal gastric emptying (n = 32-34), 2 mg BID): 43%
Improvement in adequate relief by gastric emptying status (FD patients [2]; all doses, subjects with normal and subjects with abnormal gastric emptying): Improvement was observed for all doses
Adequate relief rate as compared with placebo (FD patients [2]; each dose (0.5, 1, 2 mg BID)): greater adequate relief rate as compared with placebo
Nausea, early satiety and post-prandial fullness (FD patients [2]; female patients and patients with normal gastric emptying): substantially improved
Adverse Events: Any event (FD patients [3]; 0.5 mg BID): 68%
Adverse Events: GI event (FD patients [3]; 0.5 mg BID): 58%
Adverse Events: Neurology (FD patients [3]; 0.5 mg BID): 9%
Adverse Events: constipation (FD patients [3]; 0.5 mg BID): 45%
Adverse Events: Any event (FD patients [3]; 1 mg BID): 68%
Adverse Events: GI event (FD patients [3]; 1 mg BID): 52%
Adverse Events: Neurology (FD patients [3]; 1 mg BID): 4%
Adverse Events: constipation (FD patients [3]; 1 mg BID): 34%
Adverse Events: Any event (FD patients [3]; 2 mg BID): 75%
Adverse Events: GI event (FD patients [3]; 2 mg BID): 63%
Adverse Events: Neurology (FD patients [3]; 2 mg BID): 16%
Adverse Events: constipation (FD patients [3]; 2 mg BID): 46%
Tolerability (FD patients [3]; FD patients): well-tolerated
